Test results reported in article PMC8245773, “Brevibacillin 2V, a Novel Antimicrobial Lipopeptide With an Exceptionally Low Hemolytic Activity” (Frontiers in Microbiology, 2021).
*1 amine or outer side, *2 acyl side, *3 side chain or, on linkers, in order; H or OH if unused. Where a SMILES comes first, the peptide text is derived from it. [ ]: non-standard residue; d: D form. The star is where a group is joined. X2 = CC=C(N[*:1])C(=O)[*:2]; dOrn = NCCC[C@@H](N)C(=O)O; Valol = CC(C)[C@@H](CO)N*; X1 = CCC(C)C(O)C(=O)*

Assays:
[1] = cited from earlier work
Protocol: For cytotoxicity assays, HepG2 cells were incubated in the presence of brevibacillin concentrations ranging from 2 to 64 mg/L. After 24 h of incubation, cell viability was determined using an XTT kit.

human erythrocytes = assay: Hemolytic activity; conditions: for HC50 (concentration that causes 50% hemolysis of human red blood cells): 1 h
Protocol: This assay was performed as per the method described in previous studies ([Ling et al., 2015]; [Li et al., 2018]). Briefly, erythrocytes were isolated from a healthy human volunteer donor (ordered from Sanquin, Netherlands^1) and washed with phosphate-buffered saline (PBS) three times. After that, peptides were added at final concentrations of 128, 64, 32, 16, 8, 4, 2, 1, and 0 mg/L in PBS containing 2% (v/v) erythrocytes. The cells were incubated at 37°C for 1 h and centrifuged for 5 min at 8,000 g. The supernatant was transferred to a 96-well plate, and the absorbance was measured at a wavelength of 450 nm with a Thermo Scientific Varioskan^TM LUX multimode microplate reader. The absorbance relative to the positive control, which was treated with 10% Triton X-100, was defined as the percentage of hemolysis. The 50% human blood cell hemolysis concentration (HC50) of peptides was calculated as described in previous studies ([Reed and Muench, 1938]).
(§1) GraphPad Prism 7.0 was used to fit the data of hemolytic assay and cytotoxicity assay in Figure 3. The experiments were conducted in triplicate, and data are presented as the mean value of triplicate experiments. Data Explorer Software was used to analyze the MALDI-TOF data; Thermo Scientific Xcalibur software was used to analyze the LC–MS/MS data. The statistical significance of the data was assessed using Duncan’s multiple-range test with the software SPSS Statistics 19.0. P-values less than 0.05 were considered to be statistically significant.

HepG2 cells = conditions: for HepG2 CC50: 24 h
Protocol: The cytotoxicity of brevibacillins was evaluated on HepG2 cells by using the XTT (Cell Proliferation Kit XTT, AppliChem) assay ([Roehm et al., 1991]). HepG2 cells [in Dulbecco’s modified Eagle’s medium (DMEM) supplemented with 10% fetal bovine serum] were seeded into 96-well plates and incubated at 37°C with 5% CO2. After 24 h, the medium was replaced with a fresh medium (DMEM with 2% FBS, 100 μl per well) containing different concentrations of brevibacillins ([Zhao et al., 2017]). After 24 h of incubation, the XTT reagent was added to the cultures according to the manufacturer’s instructions, and the plates were incubated at 37°C for 2 h with 5% CO2. Subsequently, the absorbance values were measured by using a Varioskan^TM LUX multimode microplate reader (Thermo Fisher Scientific) at 485 nm (reference, 690 nm). The 50% cell toxicity (CC50) of peptides was calculated as described in a previous study ([Reed and Muench, 1938]).
as §1

| Molecule | CC50 [1] | hemolytic activity at 64 mg/L (human erythrocytes) | HC50 (concentration that causes 50% hemolysis of human red blood cells) (human erythrocytes) [mg/L] | CC50 (HepG2) relative to MIC values against bacterial pathogens (HepG2 cells) | cytotoxicity to HepG2 cells at 16 mg/L (HepG2 cells) | HepG2 CC50 (HepG2 cells) [µg/mL] | hemolytic activity at 128 mg/L (human erythrocytes) |
| --- | --- | --- | --- | --- | --- | --- | --- |
| bogorol | below 8 mg/L | – | – | – | – | – | – |
| CC=C(NC(=O)C(O)C(C)CC)C(=O)N[C@@H](CC(C)C)C(=O)N[C@H](CCCN)C(=O)N[C@H](C(=O)N[C@H](C(=O)N[C@H](C(=O)N[C@H](CCCCN)C(=O)N[C@H](C(=O)N[C@H](C(=O)N[C@@H](CCCCN)C(=O)N[C@H](Cc1ccc(O)cc1)C(=O)N[C@@H](CC(C)C)C(=O)N[C@H](CO)C(C)C)C(C)C)C(C)C)C(C)C)[C@@H](C)CC)[C@@H](C)CC (stereo partly drawn) [brevibacillin] (X1-[X2]L[dOrn]IIV[dK]VVK[dY]L-Valol) | – | completely lysed | 25.1 ± 0.1 | 2.5- to fivefold | all of the HepG2 cells were killed | 5.21 ± 0.01 | – |
| CC=C(NC(=O)C(O)C(C)CC)C(=O)N[C@@H](CC(C)C)C(=O)N[C@H](CCCN)C(=O)N[C@H](C(=O)N[C@H](C(=O)N[C@H](C(=O)N[C@H](CCCCN)C(=O)N[C@H](C(=O)N[C@H](C(=O)N[C@@H](CCCCN)C(=O)N[C@H](Cc1ccc(O)cc1)C(=O)N[C@@H](CC(C)C)C(=O)N[C@H](CO)C(C)C)C(C)C)C(C)C)C(C)C)C(C)C)[C@@H](C)CC (stereo partly drawn) [brevibacillin V] (X1-[X2]L[dOrn]IVV[dK]VVK[dY]L-Valol) | – | – | 73.1 ± 1.4 | 2.5- to fivefold | all of the HepG2 cells were killed | 9.89 ± 0.67 | completely lysed |
